# Patent US5242826A, “Polypeptides for adhering cells to a substrate” (Regents of the University of Minnesota, priority 1991, dated 1993)
# Assay: 3H-heparin binding to type IV collagen and to NCl domain
# Experimental: It was then established that ^3 H-heparin binds both to intact, native type IV collagen and to the isolated NCl domain. FIGS. 10 and 11 show the binding of a constant amount of ^3 H-heparin (85,000 dpm) to increasing concentrations of type IV collagen and the NCl domain, respectively. […] Type IV collagen binds 5-6 times more ^3 H-heparin than does the NCl domain.
# Next, the binding of increasing concentrations of ^3 H-heparin to a constant amount of type IV collagen (3 μg) and an equimolar amount of the NCl domain (1 μg) was tested. […] In this type of experiment, approximately 4 times more ^3 H-heparin bound to type IV collagen than to the NCl domain.
substance,measurement,setting,value
"type IV collagen: basement membrane glycoprotein, MW about 500,000, two α1 chains and one α2 chain",binding of a constant amount of 3H-heparin to increasing concentrations of protein,"3H-heparin 85,000 dpm, FIG. 10-11",saturable binding
same,3H-heparin bound by type IV collagen relative to NCl domain,"constant 3H-heparin (85,000 dpm), increasing protein",5-6 times
same,3H-heparin bound to type IV collagen relative to NCl domain,"increasing 3H-heparin, constant protein (3 μg vs 1 μg)",approximately 4 times
same,binding of increasing concentrations of 3H-heparin to a constant amount of protein,"type IV collagen 3 μg, NCl domain 1 μg (equimolar), FIG. 12-13",saturable binding
